Experimental data as given in patent publication US6916782B1, “Gene coding for heliomicine and use thereof” (priority 1998, dated 2005).
Bridge positions count the residues as written; N and C are the ends. Ends that are not written are not given here.

What was measured:
female mice = test: Study of acute toxicity, intravenous injection
Protocol: Groups of 4 female mice were treated by intravenous injection of solutions of heliomicine (SEQ ID NO:2) in saline solution at doses of 1 and 10 mg/kg.

Aspergillus fumigatus = test: Inhibition of growth in liquid medium, filamentous fungi (MIC); type: cell-based; conditions: range [a]-[b], 48 h, 30° C.
Text: (§1) This methodology was used to test for the antifungal molecules during the various purification steps, for the determination of the activity spectrum of the peptide and for the determination of the minimum inhibitory concentration (MIC) at which the peptide was active. The MIC was expressed as the concentration range [a]-[b] where [a] was the minimum concentration where the start of growth is observed and [b] the concentration for which no growth was observed.
(§2) The antifungal activity was detected by a test for inhibition of growth in a liquid medium. The spores of the fungi to be tested were suspended in a culture medium of the “potato-glucose” type. Preferably, 12 g of Potato Dextrose Broth medium (Difco) were used per 1 l of demineralized water. Two antibiotics were added to the culture medium: tetracycline (final concentration of 10 μg/ml) and cefotaxime (100 μg/ml). 10 μl of each fraction to be analysed are deposited in microtitre plates in the presence of 90 μl of culture medium containing the spores (at a final concentration of […]). The incubation was carried out in a humid chamber at 30° C. for 48 hours. Fungal growth was observed under a light microscope after 24 h and quantified after 48 hours by measuring the absorbance at 600 nm with the aid of a spectrophotometric microtitre plate reader. […]

Trichoderma viride = test: as above; type: cell-based; conditions: range [a]-[b], 48 h, 30° C.
Text: as §1, §2

Candida albicans = test: Test for detection of activity against yeasts (MIC); type: cell-based; conditions: range [a]-[b]
Text: as §1
(§3) The various yeast strains were incubated in a “Sabouraud” type culture medium and incubated at 30° C. for 24 h with gentle stirring. The test sample (10 μl) was deposited in microtitre plate wells to which there were added 90 μl of a dilute yeast culture whose density was adjusted to OD 600=0.001. Growth was evaluated by measuring the absorbance at 600 nm with the aid of a spectrophotometric microtitre plate reader.
(§4) - yeasts tested: Candida albicans, C. glabrata, C. tropicalis, C. krusei, C. inconspicua, Cryptococcus neoformans, Cryp. albidus, Saccharomyces cerevisiae (gift from Dr. H. Koenig, Hôpital civil, Strasbourg).

Candida inconspicua = test: as above; type: cell-based; conditions: range [a]-[b]
Text: as §1, §3, §4

Candida krusei = test: as above; type: cell-based; conditions: range [a]-[b]
Text: as §1, §3, §4

Candida tropicalis = test: as above; type: cell-based; conditions: range [a]-[b]
Text: as §1, §3, §4

Cryptococcus albidus = test: as above; type: cell-based; conditions: range [a]-[b]
Text: as §1, §3, §4

Cryptococcus neoformans = test: as above; type: cell-based; conditions: range [a]-[b]
Text: as §1, §3, §4

Neurospora crassa = conditions: range [a]-[b], start of growth to no growth, 48 h, 30° C.
Protocol: (§5) The antifungal activity was detected by a test for inhibition of growth in a liquid medium. The spores of the fungi to be tested were suspended in a culture medium of the “potato-glucose” type. Preferably, 12 g of Potato Dextrose Broth medium (Difco) were used per 1 l of demineralized water. Two antibiotics were added to the culture medium: tetracycline (final concentration of 10 μg/ml) and cefotaxime (100 μg/ml). 10 μl of each fraction to be analysed are deposited in microtitre plates in the presence of 90 μl of culture medium containing the spores (at a final concentration of 104 spores/ml). The incubation was carried out in a humid chamber at 30° C. for 48 hours. Fungal growth was observed under a light microscope after 24 h and quantified after 48 hours by measuring the absorbance at 600 nm with the aid of a spectrophotometric microtitre plate reader.
(§6) The different mutated heliomicines were analyzed for their antifungal activity under the conditions described for the reference heliomicine against the following strains: Neurospora crassa, Fusarium culmorum and Nectria haematococca.

Fusarium culmorum = conditions: range [a]-[b], 48 h, 30° C.
Protocol: as §5, §6

Nectria haematococca = conditions: range [a]-[b], 48 h, 30° C.
Protocol: as §5, §6

Row | Molecule | Toxic effects (female mice; intravenous injection, at 5 days at 1 mg) | Mortality (female mice; intravenous injection, at 5 days at 10 mg) [%] | MIC of heliomicine (Aspergillus fumigatus) [µM] | MIC of heliomicine (Trichoderma viride) [µM] | MIC of heliomicine (Candida albicans) [µM] | MIC of heliomicine (Candida inconspicua) [µM] | MIC of heliomicine (Candida krusei) [µM] | MIC of heliomicine (Candida tropicalis) [µM] | MIC of heliomicine (Cryptococcus albidus) [µM] | MIC of heliomicine (Cryptococcus neoformans) [µM] | MIC of heliomicine (Neurospora crassa) [µM] | MIC of heliomicine (Fusarium culmorum) [µM] | MIC of heliomicine (Nectria haematococca) [µM] | Acute toxicity (female mice; intravenous injection in saline solution, doses of 1 and 10 mg/kg)
1 | CC[C@H](C)[C@H](NC(=O)CN)C(=O)NCC(=O)N[C@@H](C)C(=O)N[C@H](C(=O)N[C@@H](CC(C)C)C(=O)N[C@@H](CCCCN)C(=O)N[C@H](C(=O)N[C@@H](CC(C)C)C(=O)N[C@H](C(=O)N[C@H](C(=O)NCC(=O)N[C@@H](CC(C)C)C(=O)N1CCC[C@H]1C(=O)N[C@@H](C)C(=O)N[C@@H](CC(C)C)C(=O)N[C@H](C(=O)N[C@@H](CO)C(=O)N[C@@H](Cc1c[nH]c2ccccc12)C(=O)N[C@H](C(=O)N[C@@H](CCCCN)C(=O)N[C@@H](CCCNC(=N)N)C(=O)N[C@@H](CCCCN)C(=O)N[C@@H](CCCNC(=N)N)C(=O)N[C@@H](CCC(N)=O)C(=O)N[C@@H](CCC(N)=O)C(N)=O)[C@@H](C)CC)[C@@H](C)CC)[C@@H](C)O)[C@@H](C)O)C(C)C)C(C)C [mellitin] | significant effects | 100 |  |  |  |  |  |  |  |  |  |  |  | 
2 | DKLIGSCVWGAVNYTSDCNGECKRRGYKGGHCGSFANVNCWCET (disulfide 7-32, 18-40, 22-42) [heliomicine] |  |  | 6 to 12.5 | 1.5 to 3 | 2.5 to 5 | 5 to 10 | 10 to 20 | 2.5 to 5 | 5 to 10 | 2.5 to 5 | 0.1 to 0.2 | 0.2 to 0.4 | 0.4 to 0.8 | No toxicity was demonstrated
